Consider 25 compounds from US20260008780A1, “SUBSTITUTED 3,4-DIHYDROISOQUINOLIN-1(2H)-ONE DERIVATIVES AND RELATED USES” (NodThera Limited, priority 2022, published 2026).

This assay deals with IL-1β release upon NLRP3 activation in peripheral blood mononuclear cells (PBMC). The assay can be described thus: PBMC IC50 Determination Assay. Type of assay: cell-based. As to conditions: Homo sapiens; PBMC from buffy coats, LPS 3 h, compound 30 min, then ATP (5 mM) or nigericin (10 μM) 1 h; IL-1β in media by ELISA (Protocol A) or HTRF (Protocol B). On the procedure: The compounds of the present disclosure were tested for their inhibitory activity against IL-1β release upon NLRP3 activation in peripheral blood mononuclear cells (PBMC).
Protocol A. PBMC were isolated from buffy coats by density gradient centrifugation on Histopaque-1077 (Sigma, cat no. 10771). Isolated cells were seeded into the wells of a 96-well plate and incubated for 3 h with lipopolysaccharide (LPS). Following medium exchange, the compounds of the present disclosure were added (a single compound per well) and the cells were incubated for 30 min. Next, the cells were stimulated either with ATP (5 mM) or nigericin (10 μM) for 1 h and the cell culture media from the wells were collected for further analysis.
The release of IL-1β into the media was determined by a quantitative detection of IL-1β in the media using an IL-1p enzyme-linked immunosorbent assay (ELISA) Ready-SET-Go!, eBioscience cat. No. 88-7261-88. Briefly, in a first step, high affinity binding plates (Corning, Costar 9018 or NUNC Maxisorp Cat No. 44-2404) were coated overnight at 4° C. with specific capture antibody included in the kit (anti-human IL-1β ref 14-7018-68). Subsequently, plates were blocked with blocking buffer for 1 h at room temperature (rt) and after washing with a buffer (PBS with 0.05% Tween-20) incubated with protein standard and culture media. After 2 h of incubation at rt, plates were washed and incubated with biotinylated detection antibody included in the kit (anti-human IL-1β Biotin ref. 33-7110-68) for 1 h at rt. Plates were washed and incubated with HRP-streptavidin for 30 min at rt and washed again. The signal was developed after addition of 3,3′,5,5′-tetramethylbenzidine-peroxidase (TMB) until colour appeared and the reaction was stopped by 2 M H2SO4. A microplate spectrophotometer (BioTek) was used to detect signals with 450 nm. The detection range of IL-1β ELISA was […].
Protocol B. PBMC were isolated from buffy coats by density gradient centrifugation on Histopaque-1077 (Sigma, cat no. 10771). Isolated cells were seeded into the wells (280,000 cells/well) of a 96-well plate and incubated for 3 h with lipopolysaccharide (LPS, 1 μg/mL diluted 1000× from a 1 mg/mL stock solution). The compounds of the present disclosure were added (a single compound per well) and the cells were incubated for 30 min. Next, the cells were stimulated with ATP (5 mM final concentration diluted 20× from a 100 mM stock solution) for 1 h and the cell culture media from the wells were collected for further analysis.
The release of IL-1β into the media was determined by quantitative detection of IL-1β in the media using HTRF®, CisBio cat. No. 62HIL1BPEH. Briefly, cell culture supernatant were dispensed directly into the assay plate containing antibodies labelled with the HTRF® donor and acceptor. A microplate spectrophotometer (BMG) was used to detect signals at 655 nm and 620 nm. The detection range of IL-1β HTRF® was 39-6500 μg/mL.
The IC50 is the midpoint of a concentration-inhibition curve. `CCc1cc2c(s1)C(=O)N(CC(=O)Nc1ccc3c(c1)[nH]c(=O)n3C)CC21CC1` [Compound 44, 2-(2′-Ethyl-7′-oxo-5′H-spiro[cyclopropane-1,4′-thieno[2,3-c]pyridin]-6′(7′H)-yl)-N-(1-methyl-2-oxo-2,3-dihydro-1H-benzo[d]imidazol-5-yl)acetamide] returned an IC50 of 1000 to 3000 nM.
Then `CCc1cc2c(s1)C(=O)N(CC(=O)Nc1ccc3nncn3n1)CC21CC1` [Compound 45, 2-{2′-Ethyl-7′-oxo-6′,7′-dihydro-5′H-spiro[cyclopropane-1,4′-thieno[2,3-c]pyridin]-6′-yl}-N-{[1,2,4]triazolo[4,3-b]pyridazin-6-yl}acetamide], with 100 to 1000 nM; and `CCc1cc2c(s1)C(=O)N(CC(=O)Nc1ncco1)CC21CC1` [Compound 46, 2-{2′-Ethyl-7′-oxo-6′,7′-dihydro-5′H-spiro[cyclopropane-1,4′-thieno[2,3-c]pyridin]-6′-yl}-N-(1,3-oxazol-2-yl)acetamide], with 100 to 1000 nM; and `CCc1cc2c(s1)C(=O)N(CC(=O)Nc1ccc3nncn3c1)CC21CC1` [Compound 47, 2-{2′-Ethyl-7′-oxo-6′,7′-dihydro-5′H-spiro[cyclopropane-1,4′-thieno[2,3-c]pyridin]-6′-yl}-N-{[1,2,4]triazolo[4,3-a]pyridin-6-yl}acetamide], with 1000 to 3000 nM.
To `CCc1cc2c(s1)C(=O)N(CC(=O)Nc1ccc(OC)nc1)CC21CC1` [Compound 48, 2-{2′-Ethyl-7′-oxo-6′,7′-dihydro-5′H-spiro[cyclopropane-1,4′-thieno[2,3-c]pyridin]-6′-yl}-N-(6-methoxypyridin-3-yl)acetamide] belongs 3000 to 10000 nM; to `CCc1cc2c(s1)C(=O)N(CC(=O)Nc1ccc3[nH]c(=O)n(C)c3c1)CC21CC1` [Compound 49, 2-{2′-Ethyl-7′-oxo-6′,7′-dihydro-5′H-spiro[cyclopropane-1,4′-thieno[2,3-c]pyridin]-6′-yl}-N-(3-methyl-2-oxo-2,3-dihydro-1H-1,3-benzodiazol-5-yl)acetamide], 3000 to 10000 nM.
In the case of `CCc1cc2c(s1)C(=O)N(CC(=O)Nc1ccncn1)CC21CC1` [Compound 50, 2-{2′-Ethyl-7′-oxo-6′,7′-dihydro-5′H-spiro[cyclopropane-1,4′-thieno[2,3-c]pyridin]-6′-yl}-N-(pyrimidin-4-yl)acetamide], the IC50 lay in the range of 100 to 1000 nM.
Then `CCc1cc2c(s1)C(=O)N(CC(=O)Nc1nccc(=O)[nH]1)CC21CC1` [Compound 51, 2-{2′-Ethyl-7′-oxo-6′,7′-dihydro-5′H-spiro[cyclopropane-1,4′-thieno[2,3-c]pyridin]-6′-yl}-N-(6-oxo-1,6-dihydropyrimidin-2-yl)acetamide], with 3000 to 10000 nM; and `CCc1cc2c(s1)C(=O)N(CC(=O)Nc1ncc(-n3cccn3)cn1)CC21CC1` [Compound 52, 2-{2′-Ethyl-7′-oxo-6′,7′-dihydro-5′H-spiro[cyclopropane-1,4′-thieno[2,3-c]pyridin]-6′-yl}-N-[5-(1H-pyrazol-1-yl)pyrimidin-2-yl]acetamide], with 1000 to 3000 nM; and `CCc1cc2c(s1)C(=O)N(CC(=O)Nc1ncc([N+](=O)[O-])cn1)CC21CC1` [Compound 53, 2-{2′-Ethyl-7′-oxo-6′,7′-dihydro-5′H-spiro[cyclopropane-1,4′-thieno[2,3-c]pyridin]-6′-yl}-N-(5-nitropyrimidin-2-yl)acetamide], with 100 to 1000 nM.
To `CCc1cc2c(s1)C(=O)N(CC(=O)Nc1ncc(Cl)cn1)CC21CC1` [Compound 54, N-(5-Chloropyrimidin-2-yl)-2-{2′-ethyl-7′-oxo-6′,7′-dihydro-5′H-spiro[cyclopropane-1,4′-thieno[2,3-c]pyridin]-6′-yl}acetamide] belongs 100 to 1000 nM.
To `CCc1cc2c(s1)C(=O)N(CC(=O)Nc1ccc(C#N)cn1)CC21CC1` [Compound 55, N-(5-Cyanopyridin-2-yl)-2-{2′-ethyl-7′-oxo-6′,7′-dihydro-5′H-spiro[cyclopropane-1,4′-thieno[2,3-c]pyridin]-6′-yl}acetamide] belongs 1000 to 3000 nM.
For the compound `CCc1cc2c(s1)C(=O)N(CC(=O)Nc1ncc(C(F)(F)F)cc1F)CC21CC1` [Compound 56, 2-{2′-Ethyl-7′-oxo-6′,7′-dihydro-5′H-spiro[cyclopropane-1,4′-thieno[2,3-c]pyridin]-6′-yl}-N-[3-fluoro-5-(trifluoromethyl)pyridin-2-yl]acetamide], the IC50 lay in the range of 1000 to 3000 nM.
Take `CCc1cc2c(s1)C(=O)N(CC(=O)Nc1ncc(Cl)cc1F)CC21CC1` [Compound 57, N-(5-Chloro-3-fluoropyridin-2-yl)-2-{2′-ethyl-7′-oxo-6′,7′-dihydro-5′H-spiro[cyclopropane-1,4′-thieno[2,3-c]pyridin]-6′-yl}acetamide]: the IC50 is 1000 to 3000 nM.
In turn, `O=C(CN1CC2(CC2)c2oc(C3CC3)cc2C1=O)Nc1ccc2nncn2c1` [Compound 58, 2-{2′-Cyclopropyl-4′-oxo-5′,6′-dihydro-4′H-spiro[cyclopropane-1,7′-furo[3,2-c]pyridin]-5′-y}—N-{[1,2,4]triazolo[4,3-a]pyridin-6-yl}acetamide] had an IC50 of 3000 to 10000 nM.
Then `O=C(CN1CC2(CC2)c2oc(C3CC3)cc2C1=O)Nc1ccc2nncn2n1` [Compound 59, 2-{2′-Cyclopropyl-4′-oxo-5′,6′-dihydro-4′H-spiro[cyclopropane-1,7′-furo[3,2-c]pyridin]-5′-yl}-N-{[1,2,4]triazolo[4,3-b]pyridazin-6-yl}acetamide], with 100 to 1000 nM.
To `CCc1cc2c(s1)C(=O)N(CC(=O)Nc1ncc(N)cn1)CC21CC1` [Compound 60, N-(5-Aminopyrimidin-2-yl)-2-{2′-ethyl-7′-oxo-6′,7′-dihydro-5′H-spiro[cyclopropane-1,4′-thieno[2,3-c]pyridin]-6′-yl}acetamide] belongs 100 to 1000 nM; to `CCc1cc2c(s1)C(=O)N(CC(=O)Nc1ncc(OC)cn1)CC21CC1` [Compound 61, 2-{2′-Ethyl-7′-oxo-6′,7′-dihydro-5′H-spiro[cyclopropane-1,4′-thieno[2,3-c]pyridin]-6′-yl}-N-(5-methoxypyrimidin-2-yl)acetamide], 100 to 1000 nM; to `CCc1cc2c(s1)C(=O)N(CC(=O)Nc1ncc(O)cn1)CC21CC1` [Compound 62, 2-{2′-Ethyl-7′-oxo-6′,7′-dihydro-5′H-spiro[cyclopropane-1,4′-thieno[2,3-c]pyridin]-6′-yl}-N-(5-hydroxypyrimidin-2-yl)acetamide], 100 to 1000 nM.
Then `CCc1cc2c(s1)C(=O)N(CC(=O)Nc1ncc(C#N)cn1)CC21CC1` [Compound 63, N-(5-Cyanopyrimidin-2-yl)-2-{2′-ethyl-7′-oxo-6′,7′-dihydro-5′H-spiro[cyclopropane-1,4′-thieno[2,3-c]pyridin]-6′-yl}acetamide], with 100 to 1000 nM; and `CC1CN(CC(=O)Nc2ncccn2)C(=O)c2cc(C3CC3)oc21` (stereo not shown) [Compound 65, 2-(2-Cyclopropyl-7-methyl-4-oxo-6,7-dihydrofuro[3,2-c]pyridin-5(4H)-yl)-N-(pyrimidin-2-yl)acetamide], with 100 to 1000 nM.
In the case of `CCc1cc2c(s1)C(=O)N(CC(=O)Nc1ncc(C#N)cc1F)CC21CC1` [Compound 66, N-(5-cyano-3-fluoropyridin-2-yl)-2-(2′-ethyl-7′-oxo-5′H-spiro[cyclopropane-1,4′-thieno[2,3-c]pyridin]-6′(7′H)-yl)acetamide], the concentration for half-maximal inhibition (IC50) was 100 to 1000 nM.
`CC1CN(CC(=O)Nc2ncccn2)C(=O)c2cc3scnc3n21` (stereo not shown) [Compound 67, 2-(5-Methyl-8-oxo-5,6-dihydrothiazolo[5′,4′:4,5]pyrrolo[1,2-a]pyrazin-7(8H)-yl)-N-(pyrimidin-2-yl)acetamide] registered a half-inhibitory concentration (IC50) of 100 to 1000 nM.
To `CCc1cc2c(s1)C(=O)N(CC(=O)Nc1ncc3[nH]c(=O)n(C)c3n1)CC21CC1` [Compound 68, 2-(2′-Ethyl-7′-oxo-5′H-spiro[cyclopropane-1,4′-thieno[2,3-c]pyridin]-6′(7′H)-yl)-N-(9-methyl-8-oxo-8,9-dihydro-7H-purin-2-yl)acetamide] belongs 3000 to 10000 nM; to `CCc1cc2c(s1)C(C)CN(CC(=O)Nc1ncccn1)C2=O` (stereo not shown) [Compound 69], 1000 to 3000 nM.
